Experimental data: patent publication US8784898B2, “Methods of wound care and treatment” (Revalesio Corporation, priority 2006, dated 2014)

Tested on: Methicillin-Resistant Staphylococcus Aureus (MRSA)
Assay: MRSA bacteriocidal effects in combination with oxacillin
Assay type: cell-based
Design: concentration or dose not given beside the values

`Cc1onc(-c2ccccc2)c1C(=O)N[C@@H]1C(=O)N2[C@@H]1SC(C)(C)[C@@H]2C(=O)O` [Drug, oxacillin] was tested, and the “Percentage of plates with no growth” value (0 min) was 16.67%, the “Percentage of plates with no growth” value (30 min) was 0.00% and the “Percentage of plates with no growth” value (120 min) was 0.00%. For the same compound, the “Percentage of plates with no growth” value (240 min) was 0.00%, the “Percentage of plates with no growth” value (480 min) was 0.00% and the “Percentage of plates with no growth” value (1080 min) was 0.00%. For the same compound, the “Percentage of plates with no growth” value (1440 min) was 0.00%.
